One experiment concerns EGFR. Also on record: method as in earlier work. The note with it: Table S1; cited from earlier work.
A further experiment relates to ERBB2. On the set-up: method as in earlier work. To be noted: Table S1; cited from earlier work.
A further experiment concerns ERBB4. On the set-up: method as in earlier work. The note with it: Table S1; cited from earlier work.
For the next experiment, the target named is T1, HER2 kinase (Homo sapiens, UniProt P04626).
T1 construct: HER2 purified kinase domain (amino acids 676–1255); purchased Thermo Fischer Scientific PV3590
T1 sequence (P04626 676-1255): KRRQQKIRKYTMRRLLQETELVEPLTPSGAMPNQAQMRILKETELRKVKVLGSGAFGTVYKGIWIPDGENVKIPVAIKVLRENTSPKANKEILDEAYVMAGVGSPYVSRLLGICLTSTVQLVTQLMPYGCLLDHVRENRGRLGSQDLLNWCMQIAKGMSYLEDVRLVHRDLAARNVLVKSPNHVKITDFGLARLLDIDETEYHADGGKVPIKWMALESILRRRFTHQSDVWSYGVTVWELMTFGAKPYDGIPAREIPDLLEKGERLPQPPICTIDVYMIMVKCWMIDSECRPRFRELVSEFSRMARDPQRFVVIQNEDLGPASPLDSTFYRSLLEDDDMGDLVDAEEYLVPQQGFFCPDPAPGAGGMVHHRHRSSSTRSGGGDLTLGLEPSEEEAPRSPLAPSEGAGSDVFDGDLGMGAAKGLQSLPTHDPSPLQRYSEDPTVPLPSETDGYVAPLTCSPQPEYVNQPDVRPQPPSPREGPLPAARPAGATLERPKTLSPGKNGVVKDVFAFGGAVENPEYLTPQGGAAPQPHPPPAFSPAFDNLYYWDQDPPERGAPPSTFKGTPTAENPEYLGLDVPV
As to the kind of experiment: Z'-LYTE Kinase Assay-Tyr6 Peptide biochemical HER2 kinase assay. To be noted: for IC50: Tyr6 peptide substrate, read-out: IC50, inhibition of ATP-induced HER2 phosphorylation. From the text: The Z’-LYTE™ Kinase Assay-Tyr6 Peptide kit (Thermo Fischer Scientific™, Madison, WI, USA) was employed to evaluate the potential of selected natural products to suppress the catalytic activity of HER2 kinase. The assay adopts a Fluorescence Resonance Energy Transfer (FRET) based method in a cell-free coupled-enzyme format with no use of antibodies. The assay method mainly relies on the difference in sensitivity of phosphorylated and non-phosphorylated peptides to proteolytic cleavage. This method is a ratio metric method that calculates the Emission Ratio of donor emission divided by acceptor emission after excitation of the donor fluorophore at 400 nm. In this assay, 20 µL/well reactions containing kinase buffer, 200 µM ATP, 4µM Z’-LYTE Tyr6 Peptide substrate, 2500 ng/mL HER2 kinase, and drugs of interest functioning as inhibitors were set up in 96-well plates. Each well received 10 µL of site-specific protease development solution after one hour of room temperature incubation. The incubation continued for a full hour. Following process termination, the kinase inhibitory activity and/or peptide substrate cleavage status were assessed using a plate reader (BioTek FLx800™) to measure the ratio of fluorescence signal at 445 nm (coumarin)/520 nm (fluorescein).
The IC50 value for each natural product was computed using XLfit® 4.1 software (ID Business Solutions Inc. (IDBS), Emeryville CA), applying non-linear regression of log concentration against the percentage of HER2 inhibition.
Utilizing the Z’-LYTE™ Kinase Assay-Tyr6 Peptide kit as a cell-free system for evaluating the inhibitory activity of HER2, the five natural products were evaluated for their capacity to inhibit HER2 phosphorylation. Since its kinase catalysis is necessary for all HER2-mediated activities, we attempted at this initial stage to validate the HER2 inhibitory ability of the five in silico hits directly on the HER2 purified kinase domain (amino acids 676–1255), that was in vitro phosphorylated to attain the maximum level of intrinsic kinase activity. In this assay, the substrate was Z’-LYTE™ Tyr6 peptide; thus, the changes in its phosphorylation can directly correlate with the HER2 kinase activity. In the meantime, tyrphostin AG 1478 was used as a positive control to ensure the validity of the assay. Lapatinib (Tykerb®) was included as a second positive control to benchmark virtual hits’ performance against clinically approved standards.

Experiment [1] has as its system SKBR3 cells. As to the kind of experiment: MTT proliferation assay, SKBR3. The class given is cell-based, human. In general terms: Tetrazolium assays rely on reduction of a dye to a coloured formazan, in cell work by metabolically active cells.
The subject of experiment [2] is BT-474 cells. The experiment can be described thus: MTT proliferation assay, BT-474. It counts as cell-based, human.
Experiment [3] concerns SKBR3 cells. As to the kind of experiment: Wound healing assay, SKBR3. It counts as cell-based. The note with it: Homo sapiens. As for the experimental part:
(§1) In a sterile flat-bottom 24-well plate, SKBR3 and BT-474 breast cancer cells were plated at a density of 1 × 10^5 cells/well. […] Wounds were then inflicted across each cell monolayer using a sterile 200 µL pipette tip. Media was aspirated, and cells were washed twice with PBS to remove floating cells and cell debris. Fresh serum-free media was placed up against the well wall to cover the bottom of the well and prevent further cell detachment. Incubation of cells was resumed for five hours at 37 °C in a humidified CO2 incubator. Subsequently, the media were substituted with fresh ones containing various doses of liquiritin, oroxin B, or DMSO as a vehicle control (3 replicates/group) along with EGF (100 ng/mL) as a scattering factor. Wound closure was microscopically monitored in vehicle-treated control wells, and the time frame for wound closure was determined to be 72 h. Before the closure of wounds in the vehicle-treated control wells, the media were removed, cells were washed with PBS and completely fixed using cold methanol for 20 min at 4 °C. An inverted VistaVision microscope was used to take pictures of the wounds monitored at zero and 72 h with a VistaVision Still camera (VWR, Radnor, PA).
(§2) Results were expressed as a percentage of cell migration according to the following Equation[16]: [drawing 2]
(§3) Where Tt is the wound thickness in treatment wells, TDMSO is the thickness of the wound in control wells treated by DMSO, and Tº is the thickness of the wound at zero time. Wound thickness was calculated in three or more randomly selected fields per treatment group.

For experiment [4], the system named is BT-474 cells. The experiment can be described thus: Wound healing assay, BT-474. The class given is cell-based. The note with it: Homo sapiens. As for the experimental part:
as §1, §2, §3

Another experiment has as its system MCF10A cells. As to the kind of experiment: MTT cytotoxicity assay, non-tumorigenic MCF10A. The class given is cell-based, human.
[5] abbreviates: Homo sapiens, BT-474, MTT, 48 h (Table S8), read-out: Cell growth inhibition IC50.
Where [6] appears, read: Homo sapiens, SK-BR-3, SKBR3, MTT, 48 h (Table S8), read-out: Cell growth inhibition IC50.
Setting [7] is: Homo sapiens, BT-474, Table S9, read-out: IC50.

For the molecule `COc1cc2ncnc(Nc3ccc(F)c(Cl)c3)c2cc1NC(=O)/C=C/CN1CCCCC1` [Dacomitinib], the values for the IC50 in the experiment on EGFR, in the experiment on ERBB2 and in the experiment on ERBB4 were 0.006 µM, […] and […], respectively.

As to `OC[C@H]1O[C@@H](Oc2cc3c(O[C@@H]4O[C@H](CO)[C@@H](O)[C@H](O)[C@H]4O)cc(O)cc3[o+]c2-c2cc(O)c(O)c(O)c2)[C@H](O)[C@@H](O)[C@@H]1O` [Delphin, Delphinidin-3,5-O-diglucoside], on HER2 kinase (cell-free Z'-LYTE), the “suppression of HER2 phosphorylation” value is reported as “no discernible suppression”.

For `CS(=O)(=O)CCNCc1ccc(-c2ccc3ncnc(Nc4ccc(OCc5cccc(F)c5)c(Cl)c4)c3c2)o1` [Lapatinib, reference compound], the inhibition at 0.015 µM against HER2 kinase (at 15 nM) amounted to 54%. This molecule returned an inhibition at 0.03 µM against HER2 kinase (at 30 nM) of 75%. In addition, the IC50 in the experiment with SKBR3 cells [1] (Homo sapiens, SK-BR-3, SKBR3, MTT, 48 h, read-out: IC50) came out at 0.153 µM; in the experiment on BT-474 cells [2] (setting [5]), 0.117 µM; with BT-474 cells [2] (Homo sapiens, BT-474, MTT, 48 h, read-out: IC50) it was 0.118 µM.

`C[C@@H]1O[C@@H](OC[C@H]2O[C@@H](Oc3cc(O)c4c(=O)cc(-c5ccc(O)cc5)oc4c3)[C@H](O[C@@H]3O[C@@H](C)[C@H](O)[C@@H](O)[C@H]3O)[C@@H](O)[C@@H]2O)[C@H](O)[C@H](O)[C@H]1O` [Ligustroflavone]: the IC50 at HER2 kinase (cell-free Z'-LYTE) is 0.0365 µM; with SKBR3 cells [1] (SKBR3, MTT, 48 h (Table S8), read-out: Cell growth inhibition IC50) it was 12.7 µM; in the experiment on BT-474 cells [2] (BT-474, MTT, 48 h (Table S8), read-out: Cell growth inhibition IC50), 6 µM.

For `OC[C@H]1O[C@@H](Oc2cc(O)cc(/C=C/c3ccc(O[C@@H]4O[C@H](CO)[C@@H](O)[C@H](O)[C@H]4O)cc3O)c2)[C@H](O)[C@@H](O)[C@@H]1O` [Mulberroside A], the IC50 on HER2 kinase (cell-free Z'-LYTE) worked out at 0.0377 µM; with SKBR3 cells [1] (setting [6]) it was 11 µM; with BT-474 cells [2] (setting [5]), 5.9 µM.

Regarding `O=c1cc(-c2ccccc2)oc2cc(O[C@@H]3O[C@H](CO[C@@H]4O[C@H](CO)[C@@H](O)[C@H](O)[C@H]4O)[C@@H](O)[C@H](O)[C@H]3O)c(O)c(O)c12` [Oroxin B], the IC50 is 0.0121 µM on HER2 kinase (cell-free Z'-LYTE); 11.9 µM in the experiment on SKBR3 cells [1] (setting [6]); 11.9 ± 0.8 µM in the experiment with SKBR3 cells [1] (Homo sapiens, SK-BR-3, SKBR3, Table S9, read-out: IC50); over 36 µM in the experiment on SKBR3 cells [3] (SK-BR-3, read-out: IC50, cell migration); 6.9 µM with BT-474 cells [2] (setting [5]); 6.9 ± 0.7 µM in the experiment on BT-474 cells [2] (setting [7]). Moreover, the IC50 in the experiment with BT-474 cells [4] (BT-474, read-out: IC50, cell migration) was over 20 µM; with MCF10A cells (Homo sapiens, MCF-10A, MCF10A, MTT, 24 h) it was 53 ± 2.1 µM. Also, the inhibition at 6 µM in the experiment with SKBR3 cells [3] (SK-BR-3, SKBR3, 6 µM, 72 h, read-out: inhibition of cell migration) is 23.5%. Also, the inhibition at 12 µM in the experiment on SKBR3 cells [3] (SK-BR-3, SKBR3, 12 µM, 72 h, read-out: inhibition of cell migration) worked out at 26.5%. Also, the inhibition at 18 µM in the experiment on SKBR3 cells [3] (SK-BR-3, SKBR3, 18 µM, 72 h, read-out: inhibition of cell migration) amounted to 31.1%. Also, the inhibition at 36 µM in the experiment on SKBR3 cells [3] (SK-BR-3, SKBR3, 36 µM, 72 h, read-out: inhibition of cell migration) is 34.8%. For the same molecule, in the experiment with BT-474 cells [4] (BT-474, 3 µM, 72 h, read-out: inhibition of cell migration), the inhibition at 3 µM is 18.9%. Also, in the experiment on BT-474 cells [4] (BT-474, 7 µM, 72 h, read-out: inhibition of cell migration), the inhibition at 7 µM was 26.5%. For the same molecule, in the experiment on BT-474 cells [4] (BT-474, 10 µM, 72 h, read-out: inhibition of cell migration), the inhibition at 10 µM came to 29.5%. Further, the inhibition at 20 µM with BT-474 cells [4] (BT-474, 20 µM, 72 h, read-out: inhibition of cell migration) came to 38.6%. The “selectivity index (SI)” value in the experiment with MCF10A cells (IC50 MCF10A / IC50 BT-474) was determined as 7.7; in the experiment with MCF10A cells (IC50 MCF10A / IC50 SKBR3) it was 4.5.

Take `CN[C@@H]1C[C@H]2O[C@@](C)([C@@H]1OC)n1c3ccccc3c3c4c(c5c6ccccc6n2c5c31)C(=O)NC4` [Staurosporine, reference compound]: the IC50 with BT-474 cells [2] (setting [5]) amounted to 3.2 µM; in the experiment on BT-474 cells [2] (setting [7]) it was 3.2 ± 0.3 µM.

These data come from article PMC12267471, “Discovery of natural scaffolds as HER2 inhibitors for breast cancer: virtual screening, molecular dynamics, and biological characterization with selectivity profiling” (Scientific Reports, 2025).
